Reference: patent US8252832B2, “Kinesin inhibitors as cancer therapeutics” (Novartis AG, priority 2007, dated 2012)

Key:
Type in all cases: cell-based
[1] = system: Colo-205; assay: CTG (CellTiter-Glo) screening assay; conditions: Homo sapiens
Excerpt: (§1) Identification of tumor types that are the most sensitive to the KSP inhibitors of the present invention can be accomplished using an unbiased approach that uses several cell-based assays. The assays chosen were as follows: • CellTiter-Glo®. This is an assay designed to measure ATP concentration in a cell culture, and can be correlated to cell number. Briefly CellTiter-Glo® (Promega Corporation) is a homogeneous method using the single CellTiter-Glo® reagent to detect ATP wherein ATP in the assay drives the activity of a thermostable luciferase to create a luminescent signal which can then be measured and correlated with the number of viable cells. Briefly, for adherent cells, 1,000 to 5,000 cells/well were plated in 96-well plates (100 μl/well) and let to adhere for 24 hours before being treated with drug. For non-adherent cells, 1,000 to 10,000 cells/well were plated in 96-well plates (100 μl/well) and immediately treated with drug. Drug dilutions were prepared in DMSO at 1000 times the final concentration. These dilutions were then diluted 1/100 in growth media before being added to the cells (11 μl/well) to achieve the desired final concentration. After 48 h in a 37° C. tissue culture incubator, the plates were processed for the CellTiter-Glo®assay according to the manufacturer's instructions. Protocol for a 72 hour cell proliferation assay: The 72 hour assay was performed the same way as the 48 hour assay except for the following modifications: For adherent cells, 500 to 5,000 cells/well were plated in 96-well plates (90 μl/well cell growth media) and left to adhere for 24 hours before being treated with drug. For non-adherent cells, 1,000 to 10,000 cells/well were plated in 96-well plates (90 μl/well cell growth media) and immediately treated with drug. Data values presented represent the concentration of test compound required for a 50% reduction in growth. • LDH release. The Cytotoxicity Detection KitPLUS (LDH) assay (Roche Diagnostics, Manheim, Germany) measures the amount of LDH released in the media by dying cells; LDH catalyzes the conversion of lactate into pyruvate. The enzymatic reaction is coupled to a chemical reaction that uses a tetrazolium salt to form a formazan that is red and can be detected by its absorbance at 490 nm. This assay measures the amount of cell death after drug treatment. Cells were plated at 10,000 cells/well in 96-well plates (100 μl/well). Adherent cells were let to adhere for 24 hours before being treated with drug, whereas non-adherent cells were immediately treated with drug. Drug dilutions were prepared in DMSO at 1000 times the final concentration. These dilutions were then diluted 1/100 in growth media before being added to the cells (11 μl/well) to achieve the desired final concentration. After 48 h in a 37° C. tissue culture incubator, the plates were processed for the Cytotoxicity Detection KitPLUS (LDH) assay according to the manufacturer's instructions. The media only values were subtracted from all the data points before analysis. Data values presented correspond to the compound concentration wherein LDH output is at half maximal level. • Caspase-Glo® 3/7. The Caspase-Glo® 3/7 Assay (Promega Corporation) is a homogeneous luminescent assay that measures caspase-3/7 activities. The assay provides a proluminescent caspase-3/7 DEVD-aminoluciferin substrate and a thermostable luciferase in a reagent optimized for caspase-3/7 activity, luciferase activity and cell lysis. Adding the single Caspase-Glo® 3/7 Reagent results in cell lysis, followed by caspase cleavage of the substrate. This liberates free aminoluciferin, which is consumed by the luciferase, generating a luminescent signal. The signal is proportional to caspase-3/7 activity. Data values presented correspond to the compound concentration wherein caspase 3/7 activity is at half maximal level.

[2] = system: HT29; assay: CTG (CellTiter-Glo) screening assay; conditions: Homo sapiens, HT-29
Excerpt: as §1

[3] = system: MV4; 11; assay: CTG (CellTiter-Glo) screening assay; conditions: Homo sapiens
Excerpt: as §1

[4] = system: T47-D; assay: CTG (CellTiter-Glo) screening assay; conditions: Homo sapiens, T47D
Excerpt: as §1

[5] = system: tumor cell lines; assay: Inhibition of cellular proliferation, CellTiter-Glo, 72 hours, all cell lines tested; conditions: 72 hours of continuous compound exposure
Excerpt: Cell lines used were as follows: HCT-116 (National Cancer Institute's DCTF Tumor Repository, catalog #NCI-502568, Rockville, Md.), HCT-15 (National Cancer Institute's DCTF Tumor Repository, catalog#NCI-502711, Rockville, Md. available from American Type Tissue Collection, catalog #CLL-225), KB-3-1 (available from DSMZ, Deutsche Sammlung von Mikroorganismen und Zellkulturen GmbH (German Collection of Microorganisms and Cell Cultures—catalog number ACC 158), KB-V1 (available from DSMZ—catalog number ACC 149), AGS (available from American Type Culture Collection, Manassas Va., catalog number CRL-1739™), N87 (available from American Type Culture Collection, Manassas Va., catalog number CRL-5822), Hel92.1.7 (available from American Type Culture Collection, Manassas Va., catalog number TIB 180), K562 (available from American Type Culture Collection, Manassas Va., catalog number CRL-243™), MV4; 11 (American Tissue Culture Collection, Manassas Va., catalog number CRL-9591) and U937 (available from American Type Culture Collection, Manassas Va., catalog number CRL-1593.2).
Cells were plated in 96-well plates at densities of about 500 cells per well of a 96-well plate and allowed to grow for 24 hours. […] The amount of luminescence was determined for each well using a Wallac Trilux plate reader, which correlates with the number of cells per well. […]

CC(C)(C)[C@H](c1nc(-c2cc(F)ccc2F)cn1Cc1ccccc1)N(CC[C@H](N)CF)C(=O)CO [Compound IIa]
GI50 ([1]; Colo-205, 24 h): > 5 nM | GI50 ([1]; Colo-205, 48 h): 0.18 nM | GI50 ([1]; Colo-205, 72 h): 0.19 nM | GI50 ([2]; HT29, 24 h): > 5 nM | GI50 ([2]; HT29, 48 h): > 5 nM | GI50 ([2]; HT29, 72 h): 0.21 nM | GI50 ([3]; MV4;11, 24 h): 0.05 nM | GI50 ([3]; MV4;11, 48 h): 0.04 nM | GI50 ([3]; MV4;11, 72 h): 0.04 nM | GI50 ([4]; 24 h): > 5 nM | GI50 ([4]; 48 h): > 5 nM | GI50 ([4]; 72 h): 0.45 nM | GI50 [5]: 0.1 to 6.5 nM
